Reference: the NIST ThermoML archive (doi:10.1016/j.tca.2014.06.031)

Assays:
[1] = refractive index (Na D-line) (dimensionless); xn = mol fraction of the nth substance listed; details: 101 kPa, Liquid, Standard Abbe refractometry
[2] = xn = mol fraction of the nth substance listed; details: 101 kPa, Liquid; for speed of sound: Frequency=3 MHz, Sing-around technique in a fixed-path interferometer; for mass density: Vibrating tube method

CCCCC(=O)O [pentanoic acid] + CCCC(=O)O
Details | mass density, [2] [kg/m3] | refractive index, [1] | speed of sound, [2] [m/s]
293.15 K, x2 = 0 | 939.41 | 1.4084 | 1234
293.15 K, x2 = 0.0472 | 940.14 | 1.40813 | 1232.3
293.15 K, x2 = 0.0938 | 940.86 | 1.4077 | 1230.6
293.15 K, x2 = 0.1944 | 942.46 | 1.40676 | 1226.9
293.15 K, x2 = 0.2928 | 944.08 | 1.40581 | 1223.3
293.15 K, x2 = 0.3946 | 945.82 | 1.40481 | 1219.5
293.15 K, x2 = 0.4922 | 947.56 | 1.40383 | 1215.8
293.15 K, x2 = 0.5938 | 949.45 | 1.40278 | 1211.9
293.15 K, x2 = 0.6929 | 951.38 | 1.40174 | 1208
293.15 K, x2 = 0.7973 | 953.48 | 1.4006 | 1203.8
293.15 K, x2 = 0.895 | 955.52 | 1.39949 | 1199.9
298.15 K, x2 = 0 | 934.85 | 1.40641 | 1216
298.15 K, x2 = 0.0472 | 935.55 | 1.40607 | 1214.3
298.15 K, x2 = 0.0938 | 936.26 | 1.40563 | 1212.6
298.15 K, x2 = 0.1944 | 937.82 | 1.40469 | 1208.9
298.15 K, x2 = 0.2928 | 939.4 | 1.40374 | 1205.2
298.15 K, x2 = 0.3946 | 941.11 | 1.40274 | 1201.4
298.15 K, x2 = 0.4922 | 942.81 | 1.40175 | 1197.6
298.15 K, x2 = 0.5938 | 944.66 | 1.4007 | 1193.6
298.15 K, x2 = 0.6929 | 946.54 | 1.39965 | 1189.7
298.15 K, x2 = 0.7973 | 948.6 | 1.3985 | 1185.4
298.15 K, x2 = 0.895 | 950.6 | 1.39744 | 1181.4
303.15 K, x2 = 0 | 930.29 | 1.40438 | 1197.9
303.15 K, x2 = 0.0472 | 930.96 | 1.40399 | 1196.2
303.15 K, x2 = 0.0938 | 931.65 | 1.40355 | 1194.5
303.15 K, x2 = 0.1944 | 933.18 | 1.4026 | 1190.7
303.15 K, x2 = 0.2928 | 934.73 | 1.40164 | 1187
303.15 K, x2 = 0.3946 | 936.39 | 1.40063 | 1183.1
303.15 K, x2 = 0.4922 | 938.05 | 1.39964 | 1179.3
303.15 K, x2 = 0.5938 | 939.87 | 1.39857 | 1175.2
303.15 K, x2 = 0.6929 | 941.71 | 1.39751 | 1171.2
303.15 K, x2 = 0.7973 | 943.73 | 1.39639 | 1166.9
303.15 K, x2 = 0.895 | 945.68 | 1.39533 | 1162.8
308.15 K, x2 = 0 | 925.73 | 1.40234 | 1179.9
308.15 K, x2 = 0.0472 | 926.37 | 1.4019 | 1178.2
308.15 K, x2 = 0.0938 | 927.04 | 1.40146 | 1176.5
308.15 K, x2 = 0.1944 | 928.53 | 1.40051 | 1172.7
308.15 K, x2 = 0.2928 | 930.05 | 1.39955 | 1168.9
308.15 K, x2 = 0.3946 | 931.68 | 1.39853 | 1164.9
308.15 K, x2 = 0.4922 | 933.3 | 1.39753 | 1161
308.15 K, x2 = 0.5938 | 935.08 | 1.39646 | 1156.9
308.15 K, x2 = 0.6929 | 936.87 | 1.39541 | 1152.9
308.15 K, x2 = 0.7973 | 938.85 | 1.39431 | 1148.5
308.15 K, x2 = 0.895 | 940.76 | 1.39326 | 1144.3
313.15 K, x2 = 0 | 921.16 | 1.4003 | 1162.1
313.15 K, x2 = 0.0472 | 921.78 | 1.39983 | 1160.4
313.15 K, x2 = 0.0938 | 922.44 | 1.39937 | 1158.6
313.15 K, x2 = 0.1944 | 923.89 | 1.39841 | 1154.8
313.15 K, x2 = 0.2928 | 925.37 | 1.39745 | 1151
313.15 K, x2 = 0.3946 | 926.97 | 1.39642 | 1146.9
313.15 K, x2 = 0.4922 | 928.55 | 1.39542 | 1143
313.15 K, x2 = 0.5938 | 930.29 | 1.39437 | 1138.9
313.15 K, x2 = 0.6929 | 932.04 | 1.39332 | 1134.7
313.15 K, x2 = 0.7973 | 933.98 | 1.39222 | 1130.2
313.15 K, x2 = 0.895 | 935.84 | 1.39118 | 1126
